From patent US20200024278A1, “COMPOSITION COMPRISING ANTIBIOTIC COMPOUND AND AN HETEROCYCLIC COMPOUND AND THEIR USE IN PREVENTING OR TREATING BACTERIAL INFECTIONS” (MUTABILIS, priority 2016, published 2020)

Legend:
Assay in all cases: MIC, broth microdilution (CLSI), substance alone or ATB combined with compound at 4 or 8 μg/mL
ABA UFR161 = format: cell-based, A. baumannii; settings: Acinetobacter baumannii, substance alone, read-out: MIC
How it was run: (§1)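 CLSI broth microdilution in cation-adjusted Mueller-Hinton broth, 5·10^5 CFU/mL log-phase inoculum, 16-20 h at 35 °C in ambient air. Fosfomycin assays supplemented with 25 μg/ml glucose-6-phosphate.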

ABA 19606 = format: cell-based, A. baumannii; settings: Acinetobacter baumannii, substance alone, read-out: MIC
How it was run: as §1

ECO UFR39 = format: cell-based, E. coli; settings: ECO UFR39; for MIC ATB combined with Example: Example @8 μg/ml; for MIC ATB combined with Example compound: compound @8 μg/ml
How it was run: as §1

ECO 190317 = format: cell-based, E. coli; settings: ECO 190317; for MIC ATB combined with Example: Example @8 μg/ml
How it was run: as §1

KPN BAA-1898 = format: cell-based, K. pneumoniae; settings: KPN BAA-1898; for MIC ATB combined with Example: Example @8 μg/ml
How it was run: as §1

KPN UFR42 = format: cell-based, K. pneumoniae; settings: KPN UFR42; for MIC ATB combined with Example: Example @8 μg/ml; for MIC ATB combined with Example compound: compound @8 μg/ml
How it was run: as §1

KPN 6299 = format: cell-based, K. pneumoniae; settings: for MIC ATB combined with Example: Example @8 μg/ml
How it was run: as §1

ECL P99 = format: cell-based, E. cloacae; settings: ECL P99; for MIC ATB combined with Example: Example @8 μg/ml
How it was run: as §1

SPN 49619 = format: cell-based, S. pneumoniae; settings: SPN 49619; for MIC ATB combined with Example: Example @8 μg/ml; for MIC ATB combined with Example compound: compound @8 μg/ml
How it was run: as §1

PAE UFR48 = format: cell-based, P. aeruginosa; settings: PAE UFR48; for MIC ATB combined with Example: Example @8 μg/ml; for MIC ATB combined with Example compound: compound @8 μg/ml
How it was run: as §1

PAE UFR90 = format: cell-based, P. aeruginosa; settings: PAE UFR90; for MIC ATB combined with Example: Example @8 μg/ml; for MIC ATB combined with Example compound: compound @8 μg/ml
How it was run: as §1

PAE 105250 = format: cell-based, P. aeruginosa; settings: PAE 105250; for MIC ATB combined with Example: Example @8 μg/ml; for MIC ATB combined with Example compound: compound @8 μg/ml
How it was run: as §1

SAU 29213 = format: cell-based, S. aureus; settings: for MIC ATB combined with Example / MIC ATB combined with Example compound: SAU 29213; for MIC ATB combined with Example: Example @8 μg/ml; for MIC ATB combined with Example compound: compound @8 μg/ml
How it was run: as §1

[1] = Escherichia coli, substance alone, read-out: MIC
[2] = Pseudomonas aeruginosa, substance alone, read-out: MIC

MIC (ABA UFR161): > 32 µg/mL
MIC (ABA 19606): > 32 µg/mL
MIC ATB combined with Example (ECO UFR39; ATB ATM): <0.031 µg/mL
MIC ATB combined with Example (ECO UFR39; ATB FEP): <0.031 µg/mL
MIC ATB combined with Example (ECO UFR39; ATB FOS): <0.125 µg/mL
MIC ATB combined with Example (ECO UFR39; ATB MEM): <0.031 µg/mL
MIC ATB combined with Example (ECO UFR39; ATB PIP): <0.031 µg/mL
MIC (ECO UFR39; [1]): 4 µg/mL
MIC ATB combined with Example compound (ECO UFR39; MIC of CIP): <0.031 µg/mL
MIC ATB combined with Example compound (ECO UFR39; MIC of CPO): <0.031 µg/mL
MIC ATB combined with Example (ECO 190317; ATB ATM): <0.031 µg/mL
MIC ATB combined with Example (ECO 190317; ATB FEP): <0.031 µg/mL
MIC ATB combined with Example (ECO 190317; ATB FOS): <0.125 µg/mL
MIC ATB combined with Example (ECO 190317; ATB MEM): <0.031 µg/mL
MIC ATB combined with Example (ECO 190317; ATB PIP): <0.031 µg/mL
MIC (ECO 190317; [1]): 1 µg/mL
MIC ATB combined with Example compound (ECO 190317; MIC of CIP, compound @8 μg/ml): <0.031 µg/mL
MIC ATB combined with Example (KPN BAA-1898; ATB ATM): <0.031 µg/mL
MIC ATB combined with Example (KPN BAA-1898; ATB FEP): <0.031 µg/mL
MIC ATB combined with Example (KPN BAA-1898; ATB FOS): <=0.125 μg/mL
MIC ATB combined with Example (KPN BAA-1898; ATB MEM): <=0.031 μg/mL
MIC ATB combined with Example (KPN BAA-1898; ATB PIP): <0.031 µg/mL
MIC (KPN BAA-1898; Klebsiella pneumoniae, BAA1898, substance alone, read-out: MIC): 8 µg/mL
MIC ATB combined with Example compound (KPN BAA-1898; MIC of CIP, compound @8 μg/ml): <0.031 µg/mL
MIC ATB combined with Example (KPN UFR42; ATB ATM): <0.031 µg/mL
MIC ATB combined with Example (KPN UFR42; ATB FEP): <0.031 µg/mL
MIC ATB combined with Example (KPN UFR42; ATB FOS): <0.125 µg/mL
MIC ATB combined with Example (KPN UFR42; ATB MEM): 0.5 µg/mL
MIC ATB combined with Example (KPN UFR42; ATB PIP): >32 µg/mL
MIC (KPN UFR42; Klebsiella pneumoniae, substance alone, read-out: MIC): 8 µg/mL
MIC ATB combined with Example compound (KPN UFR42; MIC of CIP): 32 µg/mL
MIC ATB combined with Example compound (KPN UFR42; MIC of CPO): <0.031 µg/mL
MIC ATB combined with Example (KPN 6299; ATB ATM): <0.031 µg/mL
MIC ATB combined with Example (KPN 6299; ATB FEP): <0.031 µg/mL
MIC ATB combined with Example (KPN 6299; ATB FOS): <0.125 µg/mL
MIC ATB combined with Example (KPN 6299; ATB MEM): <0.031 µg/mL
MIC ATB combined with Example (KPN 6299; ATB PIP): <=0.031 μg/mL
MIC ATB combined with Example compound (KPN 6299; MIC of CIP, compound @8 μg/ml): <=0.031 μg/mL
MIC ATB combined with Example (ECL P99; ATB ATM): <0.031 µg/mL
MIC ATB combined with Example (ECL P99; ATB FEP): <0.031 µg/mL
MIC ATB combined with Example (ECL P99; ATB FOS): <0.125 µg/mL
MIC ATB combined with Example (ECL P99; ATB MEM): <0.031 µg/mL
MIC ATB combined with Example (ECL P99; ATB PIP): <0.031 µg/mL
MIC (ECL P99; Enterobacter cloacae, substance alone, read-out: MIC): 4 µg/mL
MIC ATB combined with Example compound (ECL P99; MIC of CIP, compound @8 μg/ml): <0.031 µg/mL
MIC ATB combined with Example (SPN 49619; ATB ATM): >32 µg/mL
MIC ATB combined with Example (SPN 49619; ATB FEP): <=0.031 μg/mL
MIC ATB combined with Example (SPN 49619; ATB FOS): 8 µg/mL
MIC ATB combined with Example (SPN 49619; ATB MEM): <=0.031 μg/mL
MIC ATB combined with Example (SPN 49619; ATB PIP): 0.5 µg/mL
MIC ATB combined with Example compound (SPN 49619; MIC of CIP): <0.031 µg/mL
MIC ATB combined with Example compound (SPN 49619; MIC of CLI): 0.0078 µg/mL
MIC ATB combined with Example compound (SPN 49619; MIC of CPO): <=0.031 μg/mL
MIC ATB combined with Example compound (SPN 49619; MIC of DAP): 0.125 µg/mL
MIC ATB combined with Example compound (SPN 49619; MIC of ERY): 0.0078 µg/mL
MIC ATB combined with Example compound (SPN 49619; MIC of LZD): 0.25 µg/mL
MIC ATB combined with Example compound (SPN 49619; MIC of RIF): 0.002 µg/mL
MIC ATB combined with Example compound (SPN 49619; MIC of SYN): 0.25 µg/mL
MIC ATB combined with Example compound (SPN 49619; MIC of VAN): 0.031 µg/mL
MIC (SPN 49619; Streptococcus pneumoniae, substance alone, read-out: MIC): 16 µg/mL
MIC ATB combined with Example (PAE UFR48; ATB ATM): 8 µg/mL
MIC ATB combined with Example (PAE UFR48; ATB FEP): 32 µg/mL
MIC ATB combined with Example (PAE UFR48; ATB FOS): 32 µg/mL
MIC ATB combined with Example (PAE UFR48; ATB MEM): 0.25 µg/mL
MIC ATB combined with Example (PAE UFR48; ATB PIP): 16 µg/mL
MIC ATB combined with Example compound (PAE UFR48; MIC of CIP): 4 µg/mL
MIC ATB combined with Example compound (PAE UFR48; MIC of CPO): >32 µg/mL
MIC (PAE UFR48; [2]): > 32 µg/mL
MIC ATB combined with Example (PAE UFR90; ATB ATM): 4 µg/mL
MIC ATB combined with Example (PAE UFR90; ATB FEP): 2 µg/mL
MIC ATB combined with Example (PAE UFR90; ATB FOS): 8 µg/mL
MIC ATB combined with Example (PAE UFR90; ATB MEM): 1 µg/mL
MIC ATB combined with Example (PAE UFR90; ATB PIP): 16 µg/mL
MIC ATB combined with Example compound (PAE UFR90; MIC of CIP): 1 µg/mL
MIC ATB combined with Example compound (PAE UFR90; MIC of CPO): 2 µg/mL
MIC (PAE UFR90; [2]): > 32 µg/mL
MIC ATB combined with Example (PAE 105250; ATB ATM): 16 µg/mL
MIC ATB combined with Example (PAE 105250; ATB FEP): 8 µg/mL
MIC ATB combined with Example (PAE 105250; ATB FOS): >128 µg/mL
MIC ATB combined with Example (PAE 105250; ATB MEM): 2 µg/mL
MIC ATB combined with Example (PAE 105250; ATB PIP): 32 µg/mL
MIC ATB combined with Example compound (PAE 105250; MIC of CIP): 0.125 µg/mL
MIC ATB combined with Example compound (PAE 105250; MIC of CPO): 16 µg/mL
MIC (PAE 105250; [2]): > 32 µg/mL
MIC ATB combined with Example (SAU 29213; ATB ATM): >32 µg/mL
MIC ATB combined with Example (SAU 29213; ATB FEP): 0.5 µg/mL
MIC ATB combined with Example (SAU 29213; ATB FOS): <=0.125 μg/mL
MIC ATB combined with Example (SAU 29213; ATB MEM): <=0.031 μg/mL
MIC ATB combined with Example (SAU 29213; ATB PIP): 0.125 µg/mL
MIC ATB combined with Example compound (SAU 29213; MIC of CIP): <=0.031 μg/mL
MIC ATB combined with Example compound (SAU 29213; MIC of CLI): <0.0010 µg/mL
MIC ATB combined with Example compound (SAU 29213; MIC of CPO): <0.031 µg/mL
MIC ATB combined with Example compound (SAU 29213; MIC of DAP): <=0.0020 μg/mL
MIC ATB combined with Example compound (SAU 29213; MIC of ERY): <0.0020 µg/mL
MIC ATB combined with Example compound (SAU 29213; MIC of LZD): <0.0078 µg/mL
MIC ATB combined with Example compound (SAU 29213; MIC of RIF): 0.002 µg/mL
MIC ATB combined with Example compound (SAU 29213; MIC of SYN): 0.125 µg/mL
MIC ATB combined with Example compound (SAU 29213; MIC of VAN): <0.0039 µg/mL
MIC (SAU 29213; Staphylococcus aureus, substance alone, SAU 29213 (MSSA 29213), read-out: MIC): 8 µg/mL
Compound: O=C1N2CC(n3cccn3)=CC(C2)N1OS(=O)(=O)[O-].[Na+] (stereo not drawn) [Example 11, sodium (7-oxo-3-pyrazol-1-yl-1,6-diazabicyclo[3.2.1]oct-3-en-6-yl) sulfate]
